{"source": "patent US6815195B2", "about": "“5-substituted hydantoin racemase, DNA coding for the racemase, and processes for producing optically active amino acids” (Ajinomoto Co. Inc., priority 2000, dated 2004)", "molecules": {"B1": {"name": "HRase: 5-substituted hydantoin racemase from Microbacterium liquefaciens AJ3912, amino acid sequence SEQ ID NO:2 (protein)", "chain": "MRIHVINPNSSVDLTDAVAEAARSVVSPGTTITAVNPSKGPTVIEGSYDEVLATYHLVEEVRRAEREDRPDAYVIACFGDPGLDAVRELTDRPVVGIAEAAIQMTSFVAASFSIVSILPRVRKHLHELVHRAGATDRLASLKLPDLGVLAFHEDEAAAFETLRRVAGEAVREDGAESIVLGCAGMAGFARQLSEELGVPVIDAVEAACRVAESLVALGYRTSKANTYQAPTEKQYL"}}, "key": {"[1]": {"system": "HRase", "assay": "Effect of various reagents such as enzyme inhibitors on HRase activity (residual activity)", "type": "biochemical, Microbacterium liquefaciens AJ3912", "conditions": "for effect of reagent on HRase activity (in words): purified HRase pre-incubated with reagent; for Residual Activity (%): relative to activity without reagent (100%), pre-incubation 0° C. 30 min pH 8.0, reaction pH 8.0, 30° C., 30 min, concentration in reaction: NEM 5 mM, CuSO4 2.5 mM, IAA 10 mM, EDTA 10 mM, Methanol 10% (v/v)", "procedure": "(§1) Specifically, a reaction solution containing 120 mg/dl L- or D-benzyl hydantoin (BH), 50 mM dibasic potassium phosphate buffer (KPB) (pH 8.0), 5 mM dithiothreitol (DTT) and an HRase enzyme solution was incubated at 37° C. for 30 minutes, and the reaction was stopped by adding a 9-fold excess volume of 1.1 mM CuSO4 and 11.1 mM H3PO4 solution. The precipitates were removed by centrifugation at 20,000 g×10 minutes, and the amount of racemized BH was quantitatively determined by HPLC to estimate the racemization activity. The enzyme activity causing racemization of 1 μmol BH per minute under these conditions was defined as 1 U of the enzyme activity.\n1.5 μg/ml purified HRase was pre-incubated at 0° C. for 30 minutes at pH 8.0 with 25 mM DTT, 25 mM N-ethylmaleimide (NEM), 12.5 mM CuSO4, 50 mM monoiodoacetic acid (IAA), 50 mM EDTA or 50% (v/v) methanol. As the enzyme source, each of these mixtures was reacted at pH 8.0, at 30° C. for 30 minutes to measure the residual activity, and the susceptibility of the HRase to each inhibitor was determined. The concentration of each of the enzyme and the inhibitor during the reaction was about ⅕ relative to the concentration during the pre-incubation.\nThe residual activity was shown as relative activity to the activity (100%) in the absence of the reagent (see Table 2)."}, "[2]": {"system": "HRase", "assay": "Racemization of BH by purified HRase (substrate recognition)", "type": "biochemical, Microbacterium liquefaciens AJ3912", "conditions": "0.3 mg/ml purified HRase, 37° C., pH 8.0", "procedure": "(§2) A reaction solution containing 0.3 mg/ml purified HRase, 0.12 g/dl D- or L-BH, 50 mM KPB (pH 8.0) and 5 mM DTT was incubated at 37° C. and sampled with time to quantify the amount of BH by HPLC. As the control, the same experiment was performed in an experimental group not containing the enzyme, to quantify the spontaneous racemization of BH."}, "[3]": {"system": "HRase", "assay": "Racemization of optically active 5-substituted hydantoin compounds other than BH (D-amino acid formation with AJ 11220 and HRase, TLC)", "type": "biochemical, Microbacterium liquefaciens AJ3912", "conditions": "1 g/dl substrate, 1.3 μg/ml purified HRase, 2 g/dl wet AJ 11220, 37° C., 22 hours, optical resolution TLC", "procedure": "The ability of the present HRase to catalyze racemization of optically active 5-substituted hydantoin compounds other than BH was examined. The formation of D-amino acid from L-5-substituted hydantoin by a combination of Pseudomonas sp. AJ 11220 and HRase was confirmed in the same manner as in Example 8.\n1 g/dl 5-substituted hydantoin of various kinds, together with 1.3 μg/ml purified HRase, 0.1 M KPB (pH 8.0), 0.5 mM CoCl2 and 2 g/dl wet AJ 11220, was subjected to stationary reaction at 37° C. for 22 hours. Each hydantoin consisted of D- and L-isomers as the substrate, and it was confirmed that D-amino acid was formed from the D-isomer substrate in the absence of HRase, and also that D-amino acid was not formed from the L-isomer substrate in the absence of HRase, and then it was judged that when D-amino acid was formed from the L-isomer substrate in the presence of HRase, the substrate was recognized. The formation of D-amino acid was qualitatively estimated by development with optical resolution TLC (MERCK, HPTLC CHIR) with methanol:H2O:acetonitrile=1:1:4."}, "[4]": {"assay": "HRase activity measurement: racemization of BH quantified by HPLC (specific activity of purified HRase)", "type": "biochemical, Microbacterium liquefaciens AJ3912", "procedure": "Measurement of the HRase activity of the HRase of the present invention can be carried out by measuring a change in the optical rotation as the degree of racemization of the optically active D- or L-5-substituted hydantoin compound as the substrate or by high performance liquid chromatography (HPLC) using an optical resolution column.\nas §1\nThe quantitative analysis of optically active BH by analysis in HPLC was conducted by use of Daicel Chemical CHIRALPAK WH 0.46 cmφ×25 cm. The analysis conditions are as follows:\nas §2"}, "[5]": {"assay": "Production of D-Phe from DL-BH or L-BH by a combination of Agrobacterium sp. AJ11220 and HRase", "type": "biochemical", "conditions": "reaction 30 hours", "procedure": "0.5 g/dl (26 mM) DL-BH or L-BH, together with 0.84 μg/ml purified HRase, 0.1 M KPB (pH 8.0), 0.5 mM CoCl2 and 2 g/dl wet AJ11220 microorganism, was subjected to stationary reaction at 30° C. Oxygen was previously removed from the reaction solution by replacing it by nitrogen. The reaction solution was sampled with time and analyzed by HPLC to quantify the formed D-Phe."}, "[6]": {"conditions": "calculated from initial reaction rate, 37° C., pH 8.0, 5 mM DTT"}}, "note": "“Also recorded” adds a separate entry of the source.", "data": [{"molecule": "O[C@H](CS)[C@H](O)CS", "note": "(racemic) [DTT, dithiothreitol]", "values": [{"measurement": "effect of reagent on HRase activity (in words)", "setting": "[1]", "value": "activated"}]}, {"molecule": "O=S(=O)([O-])[O-].[Cu+2]", "note": "[CuSO4]", "values": [{"measurement": "effect of reagent on HRase activity (in words)", "setting": "[1]; listed as Cu^2+", "value": "significantly inhibited"}, {"measurement": "effect of reagent on HRase activity (in words)", "setting": "[1]; listed as copper ion", "value": "strongly inhibited"}, {"measurement": "Residual Activity (%)", "setting": "[1]", "value": 0, "unit": "%"}]}, {"molecule": "O=C1NC(=O)[C@@H](Cc2ccccc2)N1", "note": "[D-BH, D-benzyl hydantoin]", "values": [{"measurement": "recognition as substrate by HRase", "setting": "[2]", "value": "recognized"}]}, {"molecule": "O=C(O)CN(CCN(CC(=O)O)CC(=O)O)CC(=O)O", "note": "[EDTA, ethylenediaminetetraacetic acid]", "values": [{"measurement": "effect of reagent on HRase activity (in words)", "setting": "[1]", "value": "no significant inhibitory effect; also recorded: minimally inhibited"}, {"measurement": "Residual Activity (%)", "setting": "[1]", "value": 86, "unit": "%"}]}, {"molecule": "O=C(O)CI", "note": "[IAA, monoiodoacetic acid]", "values": [{"measurement": "effect of reagent on HRase activity (in words)", "setting": "[1]", "value": "strongly inhibited"}, {"measurement": "effect of reagent on HRase activity (in words)", "setting": "[1]; listed as iodoacetic acid", "value": "significantly inhibited"}, {"measurement": "Residual Activity (%)", "setting": "[1]", "value": 0, "unit": "%"}]}, {"molecule": "O=C1NC(=O)[C@H](Cc2ccc(O)cc2)N1", "note": "[L-5-(p-hydroxybenzyl) hydantoin]", "values": [{"measurement": "racemization by HRase (D-amino acid formed from L-isomer substrate, qualitative)", "setting": "[3]", "value": "racemized"}]}, {"molecule": "O=C1NC(=O)[C@H](Cc2c[nH]c3ccccc23)N1", "note": "[L-5-indolyl methyl hydantoin]", "values": [{"measurement": "racemization by HRase (D-amino acid formed from L-isomer substrate, qualitative)", "setting": "[3]", "value": "racemized"}]}, {"molecule": "CC(C)C[C@@H]1NC(=O)NC1=O", "note": "[L-5-isobutyl hydantoin]", "values": [{"measurement": "racemization by HRase (D-amino acid formed from L-isomer substrate, qualitative)", "setting": "[3]", "value": "racemized"}]}, {"molecule": "O=C1NC(=O)[C@H](Cc2ccccc2)N1", "note": "[L-BH, L-benzyl hydantoin]", "values": [{"measurement": "recognition as substrate by HRase", "setting": "[2]", "value": "recognized"}]}, {"molecule": "CO", "note": "[Methanol, methanol]", "values": [{"measurement": "effect of reagent on HRase activity (in words)", "setting": "[1]", "value": "did not influence"}, {"measurement": "Residual Activity (%)", "setting": "[1]", "value": 99, "unit": "%"}]}, {"molecule": "CCN1C(=O)C=CC1=O", "note": "[NEM, N-ethylmaleimide]", "values": [{"measurement": "effect of reagent on HRase activity (in words)", "setting": "[1]", "value": "significantly inhibited; also recorded: strongly inhibited"}, {"measurement": "Residual Activity (%)", "setting": "[1]", "value": 0, "unit": "%"}]}, {"molecule": "B1", "values": [{"measurement": "specific activity of the purified HRase", "setting": "[4]; after purification (Example 1), 1 U = racemization of 1 μmol BH per minute", "value": 79, "unit": "U/mg"}, {"measurement": "specific activity of the purified HRase, formation of D-BH from L-BH", "setting": "[4]; [6]", "value": 100, "unit": "U/mg"}, {"measurement": "specific activity of the purified HRase, formation of L-BH from D-BH", "setting": "[4]; [6]", "value": 79, "unit": "U/mg"}, {"measurement": "amount of D-Phe formed from DL-BH", "setting": "[5]; HRase added (0.84 μg/ml), 26 mM DL-BH, 2 g/dl wet AJ11220, 30° C.", "value": 24.6, "unit": "mM"}, {"measurement": "amount of D-Phe formed from L-BH", "setting": "[5]; HRase added (0.84 μg/ml), 26 mM L-BH, 2 g/dl wet AJ11220, 30° C.", "value": 24.6, "unit": "mM"}, {"measurement": "molar yield of D-Phe from DL-BH", "setting": "[5]; HRase added, 26 mM DL-BH", "value": 94, "unit": "%"}, {"measurement": "molar yield of D-Phe from L-BH", "setting": "[5]; HRase added, 26 mM L-BH", "value": 94, "unit": "%"}]}]}
